Laboratory results as given in patent publication US6433011B1, “Method for inhibiting formation of aberrant crypt foci in the colon of a mammal” (American Health Foundation, priority 2000, dated 2002).
Entries after “also recorded” stand apart in the source; their conditions may differ. Marks after values point to notes of the source that are not given here.

What was measured:
[1] = test system: aberrant crypt foci (ACF) induced by azoxymethane (AOM) in the colon; experiment: AOM-induced colonic aberrant crypt foci (ACF) bioassay; format: in vivo, Male F344 rats
Description: The inventors designed a bioassay to examine whether SFN and PEITC can inhibit the formation of aberrant crypt foci (ACF) induced by azoxymethane (AOM) in Fischer rats. ACF has been recognized as an early preneoplastic lesion of colon cancer (7-9) and it is generally observed that agents that inhibit colonic ACF formation would show chemopreventive activity against colon cancer (10). […] The structures of SFN and PEITC and their NAC conjugates are shown below. Two treatment regimens in which SFN and PEITC or their NAC conjugates were administered either after (post-initiation) or before (initiation) AOM treatment were used in the bioassay in order better to define the possible mechanism of action. [drawing 1] Male F344 rats were from Charles River (Kingston, N.Y.). They were fed AIN-76A diet (5% corn oil) and tap water ad libitum. […] PEITC and SFN were purchased from Aldrich Chemical Company (Milwaukee, Wis.) and LTK Labs, Inc. (St. […] The corresponding NAC conjugates were prepared by a published method (13, 26). The purity of the conjugates was greater than 97% as determined by high-performance liquid chromatography. AOM obtained from Ash-Stevens (Detroit, Mich.) was dissolved in saline and administered subcutaneously once a week for two weeks. SFN and PEITC in corn oil and the NAC conjugates in saline (10% DMSO) were given by gavage. Groups 2 to 5 were given 5 μmol SFN or PEITC or 20 μmol of the NAC conjugates, three doses each week for eight weeks, beginning two days after the last dose of AOM. Groups 6 to 9 were treated with three doses of ITC compounds (20 μmol ITC or 50 μmol ITC-NAC) once daily and the last dose was given 2 hr before AOM dosing. This dosing regimen was repeated during the second week of AOM dosing. Groups 10 to 13 were treated with ITCs (5 μmol/dose) or the conjugates (20 μmol/dose) only, three times weekly for eight weeks. Group 14 served as the control group. The bioassay was terminated at week 10 after the second AOM treatment. The colon was processed for microscopic examination and the ACF were recorded using a standard procedure described previously (14). […] For statistical analysis, means were compared among the groups using one-way analysis of variance (ANOVA) followed by Fisher's protected t-test.

[2] = molecular target: N,N-dimethylnitrosamine (NDMA) demethylase (CYP2E1) (Rattus norvegicus, UniProt P05182); settings: rat liver microsomes; previously shown (ref 26); cited from earlier work
[3] = Toxicity observations (body weight, gastrointestinal symptoms) in the ACF bioassay
colon tumor incidence = settings: AOM treated rats, cited from earlier work
ACF formation = settings: given in the diet, short-term study (ref 10); cited from earlier work
[4] = dog, in vivo; cited from earlier work
colon tumorigenesis = settings: rats; at the dose level studied (refs 29, 30); cited from earlier work
esophagus tumorigenesis = settings: rats; at the dose level studied (refs 29, 30); cited from earlier work
lung tumorigenesis = settings: previously reported; cited from earlier work
[5] = ITC compound only, no AOM: 5 μmol/dose ITC or 20 μmol/dose conjugate, three times weekly for eight weeks
[6] = initiation (pretreatment): 20 μmol ITC or 50 μmol ITC-NAC before AOM, negative = enhancement
[7] = initiation (pretreatment): 20 μmol ITC or 50 μmol ITC-NAC by gavage before AOM, AOM alone (Group 1) 52
[8] = initiation (pretreatment): 20 μmol ITC or 50 μmol ITC-NAC by gavage before AOM, AOM alone (Group 1) 153
[9] = post-initiation: 5 μmol SFN or PEITC or 20 μmol NAC conjugate by gavage, three doses weekly for eight weeks after AOM, AOM alone (Group 1) 52
[10] = post-initiation: 5 μmol SFN or PEITC or 20 μmol NAC conjugate by gavage, three doses weekly for eight weeks after AOM, AOM alone (Group 1) 153
[11] = post-initiation: 5 μmol SFN or PEITC or 20 μmol NAC conjugate, three doses weekly for eight weeks after AOM
[12] = initiation: ITC compound by gavage before AOM, 20 μmol ITC or 50 μmol ITC-NAC, three doses once daily, last 2 hr before AOM, repeated in second week
[13] = post-initiation: ITC compound by gavage after AOM, 5 μmol SFN or PEITC or 20 μmol NAC conjugate, three doses each week for eight weeks

Chain of N,N-dimethylnitrosamine (NDMA) demethylase (CYP2E1) (P05182 whole entry): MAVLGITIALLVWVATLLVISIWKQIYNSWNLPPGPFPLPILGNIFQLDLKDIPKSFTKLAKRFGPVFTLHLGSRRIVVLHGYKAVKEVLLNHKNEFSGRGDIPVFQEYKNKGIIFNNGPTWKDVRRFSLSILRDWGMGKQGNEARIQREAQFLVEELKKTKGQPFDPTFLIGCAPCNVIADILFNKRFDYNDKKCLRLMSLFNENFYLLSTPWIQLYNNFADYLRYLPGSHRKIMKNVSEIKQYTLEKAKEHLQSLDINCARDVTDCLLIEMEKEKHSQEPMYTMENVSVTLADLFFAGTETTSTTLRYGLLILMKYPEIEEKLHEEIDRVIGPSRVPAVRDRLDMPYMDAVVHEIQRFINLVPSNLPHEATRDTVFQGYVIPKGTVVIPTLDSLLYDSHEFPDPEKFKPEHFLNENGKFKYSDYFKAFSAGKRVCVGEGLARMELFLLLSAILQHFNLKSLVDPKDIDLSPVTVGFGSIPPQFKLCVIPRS

Row | Compound | Number of aberrant crypt foci >4 Crypts [1, 5] | Number of aberrant crypt foci Total [1, 5] | Percent of inhibition compared to Group 1, Total aberrant crypt foci [1, 6] | Percent of inhibition compared to Group 1, aberrant crypt foci >4 Crypts [1, 6] | Number of aberrant crypt foci >4 Crypts [1, 7] | Number of aberrant crypt foci Total [1, 8] | Number of aberrant crypt foci >4 Crypts [1, 9] | Number of aberrant crypt foci Total [1, 10] | Percent of inhibition compared to Group 1, Total aberrant crypt foci [1, 11] | Percent of inhibition compared to Group 1, aberrant crypt foci >4 Crypts [1, 11] | Inhibition of NDMA demethylase (CYP2E1) [2] | Average Body Weight at Termination [3, 5] | Average Body Weight at Termination [3, 12] | Average Body Weight at Termination [3, 13] | Activity towards ACF formation (ACF formation) | also measured
1 | CC(=O)N[C@@H](CSC(=S)NCCc1ccccc1)C(=O)O [PEITC-NAC, N-acetylcysteine conjugate of PEITC] | 0 | 0 | (−29)^e % | (−42)^c % | 74 | 198 | 38 | 113 | (26)^e % | (27)^f % | inhibitors | 301 | 303 | 313 |  | 
2 | N-acetylcysteine conjugate of SFA [SFN-NAC] | 0 | 0 | (22)^c % | 15% | 44 | 120 | 31 | 116 | (24)^c % | (40)^c % |  | 312 | 304 | 297 |  | 
3 | S=C=NCc1ccccc1 [BITC, benzyl isothiocyanate] |  |  |  |  |  |  |  |  |  |  |  |  |  |  | inactive; also recorded: slightly induce ACF formation | Effect on colon tumor incidence, initiation phase (colon tumor incidence; initiation phase (ref 34)): inhibit; Effect on colon tumor incidence, post-initiation phase (colon tumor incidence; post-initiation phase (ref 34)): not during the post-initiation phase
4 | S=C=NCCc1ccccc1 [PEITC, phenethyl isothiocyanate] |  |  | (25)^c % | (33)^f % | 35 | 115 | 27 | 100 | (35)^d % | (48)^c % | inhibitors |  |  |  | inactive | Dose at which dose related weight loss became statistically significant [4]: 8 mg/kg; Dose at which signs of irritation of the mucosa of the urinary bladder were reported [4]: ≥ 4 mg/kg/day; Dose levels at which diarrhea and vomiting, with gastrointestinal irritation, occurred sporadically [4]: ≥ 2 mg/kg
5 | C[S+]([O-])CCCCN=C=S (centres unmarked) [SFN, sulforaphane] | 0 | 0 | (29)^c % | (33)^f % | 35 | 109 | 30 | 103 | (33)^d % | (42)^b,c % |  | 309 | 310 | 301 |  | 
6 | S=C=NCCCCCCc1ccccc1 [phenylhexyl ITC] |  |  |  |  |  |  |  |  |  |  |  |  |  |  |  | Effect on colon tumorigenesis (colon tumorigenesis): enhanced; Effect on esophagus tumorigenesis (esophagus tumorigenesis): enhanced; Effect on lung tumorigenesis (lung tumorigenesis): potent inhibitor
